Results published in US20020062088A1, “System and method for statistical analysis of QT interval as a function of changes in RR interval” (priority 2000, published 2002).
Like-named read-outs stand apart in the source and are kept apart here.

Columns and labels:
conscious mongrel dog = details: in vivo
Description: A system for recording electrocardiogram data in accordance with the present invention is broadly shown in FIG. 6 as reference numeral 100. […] The vehicle or test compound may be administered in various ways, including but not limited to orally, intravenously, or subcutaneous.
Heart rate (RR interval) and Lead II ECG data are collected continuously on a beat-to-beat basis at a sampling rate of 1000 Hz to allow for millisecond (ms) resolution. Using the sampled data, the QT interval and preceding RR interval are measured on individual cardiac cycles using commercially available data acquisition and analysis software. The software package used in support of the data presented here was from Gould Inc. (Po-Ne-Mah) subsidiary. This software permits visual validation of the determination of end points used in the calculation of the ECG time intervals. The collection of data is not limited to any particular method. For example, ECG time intervals can be measured using a ECG strip chart recorder. Thus, both manual and electrical data collection is possible with the present invention.
The various treatments with vehicle or compounds are studied in a randomized fashion.
Approximately 250 to 300 consecutive cardiac cycles are analyzed for a pre-dose period and during steady-state compound exposure. This encompasses between three to five minutes of continuous data for each data collection period. […] An asymptotic decaying exponential growth curve fit is used to describe the relationship between QT and RR interval:
QT=A−B*exp(−C*RR/1000) (1)
Equation (1) is used to fit the QT measurements to the preceding RR interval for each separate data set of consecutive cardiac cycles. The data from each sample period for each vehicle or compound dose is fit to the equation using a least squares nonlinear regression method such as, but not limited to, Quasi Gauss-Newton.
The upper 95% confidence limit for the difference of the curves is determined for each of the dose-to-pre-dose comparisons. If the dose curve crosses the 95% limit, the QT and RR values and the direction of crossing is noted.
The analysis of the compound versus vehicle effect on QT is also accomplished by comparisons of the number of prolonged points exceeding the 95% confidence interval of their respective pre-dose curves. The pre-dose curve value represents the least squares estimate of QT at that value of RR. The 95% limits are then used to compare the overall effect of the treatment (compound or vehicle) to that of the pre-dose response. The confidence limits of the two curves are combined (pooled) to determine the standard error of the difference between the pre-dose and post-dose curves. […] The extent of the confidence and prediction limits depends on the overall variability of the data and the values of the coefficients.
The number of pre-dose data that exceed the upper 95% prediction limit (referred to herein as “outliers”) is compared to the number of post-dose data that exceed the limit for each of the time periods. A repeated measures test for significant difference between pre-dose and post-dose outliers is conducted to evaluate an effect. In the case of small but consistent effects, the repeated measures test detects significant differences better than individual tests. […] To minimize the chance of false negatives, β, conventionally known as “Type II errors,” no multiple comparison adjustments are made for the individual tests.
Once the outliers are identified, they are compared to the pre-dose curve to estimate the magnitude of prolongation, ΔQT, above the QT-RR curve fit to the pre-dose data. The magnitude of prolongation is referenced to the curve rather than the upper 95% confidence bound because the curve is the best estimate of the QT-RR functional relationship, regardless of the number of data points.

humans = details: cited from earlier work

SMILES	Treatment crosses pre-dose curve (conscious mongrel dog)	number and magnitude of the outliers compared to the pre-dose and vehicle response (conscious mongrel dog)	post-dose curve versus pre-dose curve (conscious mongrel dog)	#outliers/total (QT exceeding 95% confidence bounds of pre-dose curve) (conscious mongrel dog; mongrel)	RR at crossing point of post-dose and pre-dose curves (conscious mongrel dog; mongrel)	mean ΔQT (of QT exceeding 95% confidence bounds of pre-dose curve) (conscious mongrel dog; mongrel)	ΔQT range (of QT exceeding 95% confidence bounds of pre-dose curve) (conscious mongrel dog; mongrel)	QTRR1000 (least squares estimate of QT at RR 1000 ms, mean ± SEM from curve fit) (conscious mongrel dog; mongrel, iv)	QTc, clinically (humans; clinical)	QT prolongation and sudden death in humans (humans)	QTc, clinically (humans; human, in vivo)
COc1cc(N)c(Cl)cc1C(=O)NC1CCN(CCCOc2ccc(F)cc2)CC1OC (stereo not shown) [cisapride]	Yes:RR =	significant increase	not significantly greater than the pre-dose curve	130/324	1094 ms	12	5 - 47	240 ± 18	clear, dose-dependent increase in QTC	caused QT prolongation and sudden death	–
CC(C)NCC(O)c1ccc(NS(C)(=O)=O)cc1 (stereo not shown) [sotalol]	–	–	–	–	–	–	–	–	–	caused QT prolongation and sudden death	–
CC(C)(C)c1ccc(C(O)CCCN2CCC(C(O)(c3ccccc3)c3ccccc3)CC2)cc1 (stereo not shown) [terfenadine]	–	significant increase	–	–	–	–	–	–	–	–	clear, dose-dependent increase in QTC
